Legend:
HaCaT cells = test: Relief of 5-FU proliferative toxicity to HaCaT cells (CCK-8 cell survival); assay type: cell-based; conditions: for activation at 1 µM: compound 1 μM; for activation at 10 µM: compound 10 μM; for activation at 100 µM: compound 100 μM; for activation at 500 µM: compound 500 μM; for activation at 1000 µM: compound 1000 μM; for Cell Survival Rate (increased percentage of cell survival compared with the Group of 5-FU): 5-Fu 20 μM, HaCaT cells
Procedure, shortened: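 HaCaT keratinocytes (5000–10000/well) cultured 24 h, then exposed 48 h to 5-FU alone or with thymidine derivative, or thymidine plus uridine derivative mix, versus solvent-matched blanks. Survival by CCK-8; value is % increase in survival over 5-FU alone, t-test.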

[1] = test system: pain in capecitabine hand-foot syndrome rats; test: Pain of hand-foot syndrome, mechanical sensitivity in rats (von Frey); assay type: in vivo, rat; conditions: capecitabine 4000 mg/kg hand-foot syndrome rats; thymidine derivative 3%
Procedure: According to the method of Examples 91-115, after administration of a thymidine derivative (at a concentration of 3%) and co-administration of a thymidine derivative (at a concentration of 1%) with a uridine derivative (at a concentration of 3%) to rat hand-foot syndrome models constructed from 4000 mg/kg of capecitabine for a period of time, pain analysis was performed on the rats, and the pain assessment model was mechanical sensitivity in rats (von Frey). The experimental steps were as follows: first, the rats were allowed to adapt in the room for 1 hour, then the rats were placed in an observation box with a metal mesh floor, and the mice were allowed to stay in the box for 20 minutes to adapt to the experimental platform. Next, a von Frey device was used to detect paw pain by stimulating the surface of the rat's palm with specially designed cilia to detect the mechanical sensitivity of the animal at strength of 0.4 g, 0.8 g, 1.5 g, 2.5 g, 4 g, 8 g, 10 g and 20 g (IITC Life Science, Woodland Hills, 2390 series). […] The rat movement response was considered to be a vague response, in which case the stimulation experiment was repeated.

[2] = Homo sapiens, HaCaT, increase vs Group of 5-FU, 5-FU 20 μM, 48 h, read-out: Cell Survival Rate
[3] = selected compound final concentration 0.8 μM
[4] = selected compound final concentration 1.6 μM
[5] = selected compound final concentration 3.13 μM
[6] = selected compound final concentration 6.25 μM
[7] = selected compound final concentration 12.5 μM
[8] = selected compound final concentration 25 μM
[9] = selected compound final concentration 50 μM

Compound | activation at 10 µM (HaCaT cells; [2]) [%] | activation at 100 µM (HaCaT cells; [2]) [%] | activation at 500 µM (HaCaT cells; [2]) [%] | activation at 1000 µM (HaCaT cells; [2]) [%] | pain in rats (von Frey mechanical sensitivity) [1] | Cell Survival Rate (increased percentage of cell survival compared with the Group of 5-FU) (HaCaT cells; [4]) | Cell Survival Rate (increased percentage of cell survival compared with the Group of 5-FU) (HaCaT cells; [5]) | Cell Survival Rate (increased percentage of cell survival compared with the Group of 5-FU) (HaCaT cells; [6]) | Cell Survival Rate (increased percentage of cell survival compared with the Group of 5-FU) (HaCaT cells; [7]) | Cell Survival Rate (increased percentage of cell survival compared with the Group of 5-FU) (HaCaT cells; [8]) | Cell Survival Rate (increased percentage of cell survival compared with the Group of 5-FU) (HaCaT cells; [9]) | further results
CC(=O)OC[C@H]1O[C@@H](n2cc(C)c(=O)[nH]c2=O)C[C@@H]1O [T3] | 30 to 38 | 80 to 86 | 69 to 75 | 58 to 65 | – | – | – | – | – | – | – | activation at 1 µM (HaCaT cells; [2]): 13 to 18%
COc1ccc2cc([C@H](C)C(=O)OC[C@H]3O[C@@H](n4cc(C)c(=O)[nH]c4=O)C[C@@H]3O)ccc2c1 [T25] | – | – | – | – | could significantly improve pain in rats | – | – | – | – | – | – | –
Cc1ccc(C(=O)c2ccc(CC(=O)O[C@H]3C[C@H](n4cc(C)c(=O)[nH]c4=O)O[C@@H]3CO)n2C)cc1 [T45] | – | – | – | – | could significantly improve pain in rats | 39%-46% | 63%-70% | 59%-67% | 48%-55% | 44%-51% | 39%-46% | Cell Survival Rate (increased percentage of cell survival compared with the Group of 5-FU) (HaCaT cells; [3]): 34%-41%
CC(=O)O[C@H]1C[C@H](n2cc(C)c(=O)[nH]c2=O)O[C@@H]1CO [T2] | 35 to 45 | 70 to 80 | 75 to 85 | 60 to 70 | – | – | – | – | – | – | – | activation at 1 µM (HaCaT cells; [2]): 14 to 18%
CC(=O)OCC1OC(n2cc(C)c(=O)[nH]c2=O)CC1OC(C)=O (stereo not shown) [T1] | 10 to 16 | 31 to 37 | 36 to 41 | 35 to 42 | did not significantly improve pain in rats | – | – | – | – | – | – | activation at 5 µM (HaCaT cells; Homo sapiens, HaCaT, increase vs Group of 5-FU, 5-FU 20 μM, compound 5 μM, 48 h, read-out: Cell Survival Rate): 1 to 6%; activation at 50 µM (HaCaT cells; Homo sapiens, HaCaT, increase vs Group of 5-FU, 5-FU 20 μM, compound 50 μM, 48 h, read-out: Cell Survival Rate): 21 to 26%; activation at 200 µM (HaCaT cells; Homo sapiens, HaCaT, increase vs Group of 5-FU, 5-FU 20 μM, compound 200 μM, 48 h, read-out: Cell Survival Rate): 42 to 48%; activation at 1500 µM (HaCaT cells; Homo sapiens, HaCaT, increase vs Group of 5-FU, 5-FU 20 μM, compound 1500 μM, 48 h, read-out: Cell Survival Rate): 29 to 33%; activation at 3000 µM (HaCaT cells; Homo sapiens, HaCaT, increase vs Group of 5-FU, 5-FU 20 μM, compound 3000 μM, 48 h, read-out: Cell Survival Rate): 17 to 23%
Cc1ccc(C(=O)c2ccc(CC(=O)OC[C@H]3O[C@@H](n4cc(C)c(=O)[nH]c4=O)C[C@@H]3O)n2C)cc1 [T36] | – | – | – | – | could significantly improve pain in rats | – | 27%-35% | 38%-46% | 52%-60% | 53%-61% | 49%-57% | –
Cc1cn([C@H]2C[C@H](OC(=O)C(C)c3cccc(C(=O)c4ccccc4)c3)[C@@H](CO)O2)c(=O)[nH]c1=O (stereo partly shown) [T50] | – | – | – | – | could significantly improve pain in rats | – | – | – | – | – | – | Cell Survival Rate (increased percentage of cell survival compared with the Group of 5-FU) (HaCaT cells; selected compound final concentration 2 μM): 13%-20%; Cell Survival Rate (increased percentage of cell survival compared with the Group of 5-FU) (HaCaT cells; selected compound final concentration 4 μM): 26%-33%; Cell Survival Rate (increased percentage of cell survival compared with the Group of 5-FU) (HaCaT cells; selected compound final concentration 8 μM): 36%-43%; Cell Survival Rate (increased percentage of cell survival compared with the Group of 5-FU) (HaCaT cells; selected compound final concentration 16 μM): 47%-53%; Cell Survival Rate (increased percentage of cell survival compared with the Group of 5-FU) (HaCaT cells; selected compound final concentration 32 μM): 68%-76%; Cell Survival Rate (increased percentage of cell survival compared with the Group of 5-FU) (HaCaT cells; selected compound final concentration 62.5 μM): 74%-82%; Cell Survival Rate (increased percentage of cell survival compared with the Group of 5-FU) (HaCaT cells; selected compound final concentration 125 μM): 75%-85%; Cell Survival Rate (increased percentage of cell survival compared with the Group of 5-FU) (HaCaT cells; selected compound final concentration 250 μM): 75%-82%; Cell Survival Rate (increased percentage of cell survival compared with the Group of 5-FU) (HaCaT cells; selected compound final concentration 500 μM): 65%-73%; Cell Survival Rate (increased percentage of cell survival compared with the Group of 5-FU) (HaCaT cells; selected compound final concentration 1000 μM): 58%-65%
Cc1cn([C@H]2C[C@H](O)[C@@H](COC(=O)[C@H](C)c3ccc(CC(C)C)cc3)O2)c(=O)[nH]c1=O [T32] | – | – | – | – | could significantly improve pain in rats | – | 35%-41% | 29%-36% | 46%-52% | 53%-60% | 59%-66% | Cell Survival Rate (increased percentage of cell survival compared with the Group of 5-FU) (HaCaT cells; selected compound final concentration 100 μM): 78%-85%
Cc1cn([C@H]2C[C@H](O)[C@@H](COC(=O)C(C)c3cccc(Oc4ccccc4)c3)O2)c(=O)[nH]c1=O (stereo partly drawn) [T27, ((2R,3S, 5R)-3-hydroxyl-5-(5-methyl-2,4-dioxy-3,4-dihydropyrimidin-1(2H)-yl)tetrahydrofuran-2-yl)2-(3-phenoxyphenyl)propionate Methyl] | – | – | – | – | could significantly improve pain in rats | 39%-45% | 51%-58% | 54%-61% | 51%-59% | 49%-57% | 46%-53% | –
CC1=C(CC(=O)OC[C@H]2O[C@@H](n3cc(C)c(=O)[nH]c3=O)C[C@@H]2O)c2cc(F)ccc2/C1=C\c1ccc([S+](C)[O-])cc1 (stereo partly shown) [T40] | – | – | – | – | – | 57%-65% | 45%-52% | 47%-56% | 49%-54% | 58%-65% | 48%-55% | Cell Survival Rate (increased percentage of cell survival compared with the Group of 5-FU) (HaCaT cells; [3]): 42%-50%

From patent publication US20230405003A1, “APPLICATION OF THYMIDINE DERIVATIVE IN PREPARATION OF DRUGS” (ONQUALITY PHARMACEUTICALS CHINA LTD., priority 2020, published 2023)
